# Source: PubChem BioAssay AID192 (DTP/NCI, 2004)
# Several values for one entry are separate records, joined by “and”; a condition that tells them apart may be missing. Equal values may be shown once. Inconclusive results and toxic doses are left out.
# Tested on: BDF1 mice, B16 melanoma ip, median survival T/C
# Assay: NCI In Vivo Anticancer Drug Screen. Data for tumor model B16 Melanoma (intraperitoneal) in B6D2F1 (BDF1) mice
# Conditions: endpoint: median survival time, higher = longer survival
# Summary of the method: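 Vehicle-treated animals serve as the reference (C); treated animals (T) are scored for survival or tumor size after tumor transplantation.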
# [1] = dose: 100.0 mg/kg/injection, schedule: Q01DX009 (ip), vehicle: saline
# [2] = dose: 200.0 mg/kg/injection, schedule: Q01DX009 (ip), vehicle: saline
# [3] = dose: 1.5 mg/kg/injection, schedule: Q01DX009 (ip), vehicle: saline
# [4] = dose: 3.0 mg/kg/injection, schedule: Q01DX009 (ip), vehicle: saline
# [5] = dose: 100.0 mg/kg/injection, schedule: Q01DX009 (ip), vehicle: gum acacia
# [6] = dose: 200.0 mg/kg/injection, schedule: Q01DX009 (ip), vehicle: gum acacia
# [7] = dose: 50.0 mg/kg/injection, schedule: Q01DX009 (ip), vehicle: Klucel (hydroxypropylcellulose) (HPC)
# [8] = dose: 100.0 mg/kg/injection, schedule: Q01DX009 (ip), vehicle: Klucel (hydroxypropylcellulose) (HPC)
# [9] = dose: 200.0 mg/kg/injection, schedule: Q01DX009 (ip), vehicle: Klucel (hydroxypropylcellulose) (HPC)
# [10] = dose: 25.0 mg/kg/injection, schedule: Q01DX009 (ip), vehicle: saline with Tween-80
# [11] = dose: 50.0 mg/kg/injection, schedule: Q01DX009 (ip), vehicle: saline with Tween-80
# [12] = dose: 100.0 mg/kg/injection, schedule: Q01DX009 (ip), vehicle: saline with Tween-80
# [13] = dose: 12.5 mg/kg/injection, schedule: Q01DX009 (ip), vehicle: saline with Tween-80
# [14] = dose: 6.25 mg/kg/injection, schedule: Q01DX009 (ip), vehicle: saline
# [15] = dose: 12.5 mg/kg/injection, schedule: Q01DX009 (ip), vehicle: saline
# [16] = dose: 25.0 mg/kg/injection, schedule: Q01DX009 (ip), vehicle: saline
# [17] = dose: 200.0 mg/kg/injection, schedule: Q01DX009 (ip), vehicle: saline with Tween-80
# [18] = dose: 400.0 mg/kg/injection, schedule: Q01DX009 (ip), vehicle: Klucel (hydroxypropylcellulose) (HPC)
# [19] = dose: 50.0 mg/kg/injection, schedule: Q01DX009 (ip), vehicle: saline
smiles,measurement,setting,value
CC1CCC(O)C1O (centres undefined),T/C,[1],120 % of control
same,T/C,[2],120 % of control
same,T/C,"dose: 400.0 mg/kg/injection, schedule: Q01DX009 (ip), vehicle: saline",122 % of control
Nc1nc(N)c2nc(CN(CCO)c3ccc(C(=O)NC(CCC(=O)O)C(=O)O)cc3)cnc2n1 (centres undefined),T/C,"dose: 0.1 mg/kg/injection, schedule: Q01DX009 (ip), vehicle: Klucel (hydroxypropylcellulose) (HPC)",107 % of control
same,T/C,"dose: 0.2 mg/kg/injection, schedule: Q01DX009 (ip), vehicle: Klucel (hydroxypropylcellulose) (HPC)",101 % of control
same,T/C,"dose: 0.37 mg/kg/injection, schedule: Q01DX009 (ip), vehicle: Klucel (hydroxypropylcellulose) (HPC)",99 % of control
same,T/C,"dose: 0.75 mg/kg/injection, schedule: Q01DX009 (ip), vehicle: Klucel (hydroxypropylcellulose) (HPC)",109 % of control
same,T/C,"dose: 1.0 mg/kg/injection, schedule: Q01DX009 (ip), vehicle: Klucel (hydroxypropylcellulose) (HPC)",157 % of control
same,T/C,"dose: 1.5 mg/kg/injection, schedule: Q01DX009 (ip), vehicle: Klucel (hydroxypropylcellulose) (HPC)",97 % of control
COc1cc2ccc(/C=N/NC(N)=S)cc2cc1OC,T/C,"dose: 25.0 mg/kg/injection, schedule: Q01DX009 (ip), vehicle: other",117 % of control
same,T/C,"dose: 50.0 mg/kg/injection, schedule: Q01DX009 (ip), vehicle: other",108 % of control
same,T/C,"dose: 100.0 mg/kg/injection, schedule: Q01DX009 (ip), vehicle: other",109 % of control
same,T/C,"dose: 200.0 mg/kg/injection, schedule: Q01DX009 (ip), vehicle: other",96 % of control
O=C(CCN1CC1)OCCOC(=O)CCN1CC1,T/C,[3],118 % of control
same,T/C,[4],110 % of control
CCCCNC(=O)Nc1c(C)cccc1C,T/C,[5],95 % of control
same,T/C,[6],94 % of control
Clc1ccc(C(Cl)(Cl)Cl)cc1Cl,T/C,[7],103 % of control
same,T/C,"dose: 50.0 mg/kg/injection, schedule: Q04DX003 (ip), vehicle: Klucel (hydroxypropylcellulose) (HPC)",102 % of control
same,T/C,[8],92 % of control
same,T/C,"dose: 100.0 mg/kg/injection, schedule: Q04DX003 (ip), vehicle: Klucel (hydroxypropylcellulose) (HPC)",102 % of control
same,T/C,[9],96 % of control
same,T/C,"dose: 200.0 mg/kg/injection, schedule: Q04DX003 (ip), vehicle: Klucel (hydroxypropylcellulose) (HPC)",119 % of control
BrCC(Br)CBr,T/C,[10],92 % of control
same,T/C,[11],90 % of control
same,T/C,[12],90 % of control
CCCCOC(=O)/C=C(\Br)C(=O)OCCCC,T/C,"dose: 6.25 mg/kg/injection, schedule: Q01DX009 (ip), vehicle: saline with Tween-80",99 % of control and 100 % of control
same,T/C,[13],98 % of control and 104 % of control
same,T/C,[10],86 % of control and 98 % of control
same,T/C,[11],91 % of control
same,T/C,[12],90 % of control
F[B-](F)(F)F,T/C,"dose: 12.5 mg/kg/injection, schedule: Q01DX009 (ip), vehicle: gum acacia",104 % of control
same,T/C,"dose: 25.0 mg/kg/injection, schedule: Q01DX009 (ip), vehicle: gum acacia",114 % of control
same,T/C,"dose: 50.0 mg/kg/injection, schedule: Q01DX009 (ip), vehicle: gum acacia",117 % of control
same,T/C,[5],105 % of control
same,T/C,[6],107 % of control
C=C1C(=O)OC2C=C(C)CC3C=C(CCC=C(C)CCC12)C(=O)O3 (centres undefined),T/C,"dose: 4.0 mg/kg/injection, schedule: Q01DX009 (ip), vehicle: Klucel (hydroxypropylcellulose) (HPC)",90 % of control
same,T/C,"dose: 8.0 mg/kg/injection, schedule: Q01DX009 (ip), vehicle: Klucel (hydroxypropylcellulose) (HPC)",105 % of control
same,T/C,"dose: 16.0 mg/kg/injection, schedule: Q01DX009 (ip), vehicle: Klucel (hydroxypropylcellulose) (HPC)",116 % of control
same,T/C,"dose: 32.0 mg/kg/injection, schedule: Q01DX009 (ip), vehicle: Klucel (hydroxypropylcellulose) (HPC)",101 % of control
c1ccc(CN2CCNCC2)cc1,T/C,[14],108 % of control
same,T/C,[15],108 % of control
same,T/C,[16],106 % of control
O=C1c2ccc(Br)cc2-c2cc(Br)ccc21,T/C,[10],87 % of control
same,T/C,[12],93 % of control
ClC1(c2ccccc2)c2ccc(Br)cc2-c2cc(Br)ccc21,T/C,[12],89 % of control
same,T/C,[17],92 % of control
O=C(CCCCC(=O)Nc1ccc(C2=NCCN2)cc1)Nc1ccc(C2=NCCN2)cc1,T/C,"dose: 50.0 mg/kg/injection, schedule: Q04DX003 (ip), vehicle: saline",96 % of control
same,T/C,"dose: 100.0 mg/kg/injection, schedule: Q04DX003 (ip), vehicle: saline",93 % of control
same,T/C,"dose: 200.0 mg/kg/injection, schedule: Q04DX003 (ip), vehicle: saline",90 % of control
same,T/C,"dose: 400.0 mg/kg/injection, schedule: Q04DX003 (ip), vehicle: saline",86 % of control
COc1cccnc1/C=N/NC(N)=S,T/C,"dose: 1.5 mg/kg/injection, schedule: Q01DX009 (ip), vehicle: saline with Tween-80",98 % of control
same,T/C,"dose: 3.0 mg/kg/injection, schedule: Q01DX009 (ip), vehicle: saline with Tween-80",93 % of control
same,T/C,"dose: 6.0 mg/kg/injection, schedule: Q01DX009 (ip), vehicle: saline with Tween-80",95 % of control
same,T/C,"dose: 12.0 mg/kg/injection, schedule: Q01DX009 (ip), vehicle: saline with Tween-80",98 % of control
O=C(Nc1ccc(Br)cc1)c1ccc(Cl)c(Cl)c1,T/C,[8],118 % of control
same,T/C,[9],114 % of control
same,T/C,[18],114 % of control
CNCCC=C1c2ccccc2CCc2ccccc21,T/C,[14],102 % of control
same,T/C,[15],97 % of control
same,T/C,[16],102 % of control
O=C1c2ccccc2C(=O)c2c1ccc(C(=O)O)c2-c1ccc2ccccc2c1,T/C,[8],103 % of control
same,T/C,[9],99 % of control
same,T/C,[18],96 % of control
CCCCCCCCCCCCCCCCCCNC(=S)N/N=C/c1ccc(Cl)cc1Cl,T/C,[1],87 % of control
same,T/C,[2],95 % of control
CSc1ncc(C#N)c(N)n1,T/C,[11],107 % of control
same,T/C,[12],99 % of control
same,T/C,[17],97 % of control
C=CC(=O)NCNC(=O)C=C,T/C,[13],104 % of control
same,T/C,[15],110 % of control
same,T/C,[10],99 % of control
same,T/C,[16],102 % of control
same,T/C,[11],103 % of control
same,T/C,[19],109 % of control
same,T/C,[12],107 % of control
same,T/C,[1],102 % of control
CN(C1CCCCC1)C1CCCCC1,T/C,"dose: 6.25 mg/kg/injection, schedule: Q01DX009 (ip), vehicle: Klucel (hydroxypropylcellulose) (HPC)",92 % of control
same,T/C,"dose: 12.5 mg/kg/injection, schedule: Q01DX009 (ip), vehicle: Klucel (hydroxypropylcellulose) (HPC)",92 % of control
same,T/C,"dose: 25.0 mg/kg/injection, schedule: Q01DX009 (ip), vehicle: Klucel (hydroxypropylcellulose) (HPC)",94 % of control
Nc1ccc(N(CCCl)CCN(CCCl)c2ccc(N)cc2)cc1,T/C,"dose: 0.36 mg/kg/injection, schedule: Q01DX009 (ip), vehicle: saline",108 % of control
same,T/C,"dose: 0.75 mg/kg/injection, schedule: Q01DX009 (ip), vehicle: saline",113 % of control
same,T/C,[3],113 % of control
same,T/C,[4],119 % of control
C[C@]12CCC(=O)C=C1CC[C@@H]1[C@@H]2C(=O)C[C@]2(C)C3=CC(=O)O[C@H]3C[C@@H]12,T/C,[13],100 % of control
same,T/C,[10],100 % of control
C(CSC1=NCCN1)CSC1=NCCN1,T/C,[14],97 % of control and 102 % of control
same,T/C,[15],98 % of control and 107 % of control
same,T/C,[16],105 % of control and 107 % of control
same,T/C,[19],96 % of control and 117 % of control
same,T/C,[1],101 % of control and 112 % of control
same,T/C,[2],107 % of control
CCOC(=O)/C=C/c1ccc2c(c1)OCO2,T/C,"dose: 66.0 mg/kg/injection, schedule: Q04DX003 (ip), vehicle: saline with Tween-80",97 % of control
same,T/C,[12],104 % of control
same,T/C,"dose: 100.0 mg/kg/injection, schedule: Q04DX003 (ip), vehicle: saline with Tween-80",97 % of control
same,T/C,"dose: 150.0 mg/kg/injection, schedule: Q04DX003 (ip), vehicle: saline with Tween-80",100 % of control
same,T/C,[17],106 % of control
same,T/C,"dose: 400.0 mg/kg/injection, schedule: Q01DX009 (ip), vehicle: saline with Tween-80",102 % of control
Cc1cc2no[n+]([O-])c2cc1C,T/C,[7],116 % of control
same,T/C,[8],99 % of control
same,T/C,[9],117 % of control
O=C(O)C(Cl)Cc1cnc[nH]1 (centres undefined),T/C,[19],111 % of control
same,T/C,[1],111 % of control
same,T/C,[2],112 % of control
